The source of these data is ChEMBL document CHEMBL3046337, “Activity landscape analysis, CoMFA and CoMSIA studies of pyrazole CB1 antagonists” (Med Chem Res, 2013).

For orientation: Ki means a dissociation constant, usually derived from enzyme kinetics or from competition with a known ligand. Higher therefore signals weaker binding.

The test deals with Cannabinoid receptor 1 (Homo sapiens, UniProt P21554). In words: Antagonist activity at CB1 receptor (unknown origin).
Cannabinoid receptor 1, sequence (P21554 whole entry): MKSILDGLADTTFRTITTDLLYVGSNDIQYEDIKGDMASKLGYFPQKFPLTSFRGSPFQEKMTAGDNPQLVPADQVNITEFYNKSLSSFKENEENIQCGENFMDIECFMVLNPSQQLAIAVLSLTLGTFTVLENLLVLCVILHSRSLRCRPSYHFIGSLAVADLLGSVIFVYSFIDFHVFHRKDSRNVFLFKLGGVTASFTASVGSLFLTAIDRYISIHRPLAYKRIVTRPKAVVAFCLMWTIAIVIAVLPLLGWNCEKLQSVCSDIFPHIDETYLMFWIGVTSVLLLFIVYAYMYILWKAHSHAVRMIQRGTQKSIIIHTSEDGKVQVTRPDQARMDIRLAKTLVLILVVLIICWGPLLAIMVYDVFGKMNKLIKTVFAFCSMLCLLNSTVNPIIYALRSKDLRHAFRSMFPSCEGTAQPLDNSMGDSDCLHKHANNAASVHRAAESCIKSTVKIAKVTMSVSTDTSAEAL
Regarding `CCCCCCCn1nc(C(=O)NN2CCCCC2)cc1-c1ccccc1`, the affinity corresponds to a Ki of 327 nM. `O=C(NN1CCCCC1)c1nn(-c2ccc(Cl)cc2Cl)c2c1CCCc1c-2cccc1[N+](=O)[O-]`: the Ki came to 100 nM. With `CCCCCn1nc(C(=O)NN2CCCCC2)cc1-c1ccccc1`, the Ki worked out at 256 nM. The compound `Cc1c(C(=O)NCC23CC4CC(CC(C4)C2)C3)nn(CCCCCCl)c1-c1ccccc1` came in with an inhibition constant Ki of 6 nM. On to `Cc1c(C(=O)NN2CCOCC2)nn(-c2ccc(Cl)cc2Cl)c1-c1ccc(I)cc1`, for which the affinity, expressed as Ki, was 13.2 nM. As for `CCCCCCCn1nc(C(=O)NN2CCCCC2)c(C)c1-c1ccccc1`, the figure is 203 nM.

For the compound `COCc1c(C(=O)NC2CCCCC2)nn(-c2ccc(Cl)cc2Cl)c1C1C2(C)CCC(C2)C1(C)C` (stereo not drawn), the inhibition constant (Ki) was 241 nM. With `Cc1c(C(=O)NN)nn(-c2ccc(Cl)cc2Cl)c1-c1ccc(Cl)cc1`, the inhibitory constant (Ki) stood at 374 nM. Turning to `O=C(NN1CCCCC1)c1nn(-c2ccc(Cl)cc2Cl)c2c1CCCc1cc([N+](=O)[O-])ccc1-2`, the Ki is 63 nM. Take `Cc1c(C(=O)NCCO)nn(-c2ccc(Cl)cc2Cl)c1-c1ccc(Br)cc1`: the inhibitory constant (Ki) was 1120 nM. On to `CCCn1nc(C(=O)NN2CCCCC2)c(C)c1-c1ccccc1`, for which the inhibition constant Ki was 3560 nM.

Turning to `Cc1c(C(=O)Nc2ccc(-c3ccsc3)cc2)nn(CCCCCCl)c1-c1ccccc1`, affinity was put at a Ki of 19.8 nM. As for `Cc1c(C(=O)N(C)c2ccccc2)nn(-c2ccc(Cl)cc2Cl)c1-c1ccc(Br)cc1`, the inhibition constant (Ki) is 31.1 nM. `Cc1c(C(=O)NN2CCCCC2)nn(C2CCCCC2)c1-c1ccccc1` registered a Ki of 605 nM. As for `Cc1ccc(Cn2nc(C(=O)NC3CC4CCC3(C)C4(C)C)c(C)c2-c2ccc(Cl)c(C)c2)cc1` (stereo not drawn), the figure is 400 nM; as for `O=C(NC1CCCCC1)c1nn(-c2ccc(Cl)cc2Cl)c(-c2ccc(Br)cc2)c1CO`, 6 nM.

`Cc1c(C(=O)NN2CCCCC2)nn(-c2ccc(Cl)cc2Cl)c1-c1ccc(N)cc1` yielded a Ki of 81.5 nM.

For `Cc1c(NC(=O)N2CCCCC2)nn(-c2ccc(Cl)cc2Cl)c1-c1ccc(Br)cc1`, the inhibitory constant (Ki) turned out to be 47 nM. In turn, `Cc1c(C(=O)NN2CCCCC2)nn(-c2ccc(Cl)cc2Cl)c1-c1ccc(Br)cc1` registered an inhibition constant (Ki) of 76.7 nM. `COc1ccc(-c2c(F)c(C(=O)NN3CCCCC3)nn2-c2ccc(Cl)cc2Cl)cc1` came in with an inhibition constant Ki of 18.2 nM. Compound `Cc1c(C(=O)NN2CCCCC2)nn(C)c1-c1ccc(Cl)cc1` came in with an inhibition constant Ki of 34700 nM. As for `CCCCCn1nc(C(=O)NN2CCCCC2)c(C)c1-c1ccc(Br)cc1`, the figure is 81.8 nM. Turning to `Cc1c(C(=O)NN2CCOCC2)nn(-c2ccc(Cl)cc2Cl)c1-c1ccccc1Br`, the Ki was 11.7 nM.
